Data as given in patent US20140171516A1, “GERANYLGERANYLACETONE FORMULATIONS” (COYOTE PHARMACEUTICALS, INC., priority 2012, published 2014).
Read-outs that look alike come from different tables or passages of the source.

What was measured:
[1] = Rat ocular pharmacokinetics study, Cohort 1: geranylgeranyl acetone concentration in eyes after topical eye drops; format: in vivo; conditions: Sprague-Dawley, 0.25 mg/eye, 8 doses, average of 3 rats
[2] = Intraocular GGA level, topical ocular versus oral systemic administration; format: in vivo; conditions: topical ocular composition of 5% GGA versus 200 mg/kg GGA by systemic administration orally

| SMILES | concentration at 8 h ([1]; contralateral eye, contralateral eye concentration (ng/g in Table 7), read-out: 8 h contra AVE) [ng/g] | concentration at 8 h ([1]; treated (ipsilateral) eye, treated eye concentration (ng/g in Table 7), read-out: 8 h ispi AVE) [ng/g] | levels of geranylgeranyl acetone achieved intraocularly, topical versus oral [2] |
| --- | --- | --- | --- |
| CC(=O)CC/C=C(\C)CC/C=C(\C)CC/C=C(\C)CCC=C(C)C [CNS-102, all-trans geranylgeranyl acetone] | 2100 | 8770 |  |
| CC(=O)CCC=C(C)CC/C=C(\C)CC/C=C(\C)CCC=C(C)C (mixture of isomers) [GGA, Geranylgeranyl acetone] |  |  | about 5 fold |
